Measurements: the NIST ThermoML archive (doi:10.1021/je0601457)

Test: xn = mol fraction of the nth substance listed

Cc1cnccn1 [2-methylpyrazine] + O=C=O
Fluid (supercritical or subcritical phases), Linear displacement technique
Settings	mass density [kg/m3]
294.85 K, 5860 kPa, x1 = 0.033	869
294.85 K, 6830 kPa, x1 = 0.017	749
294.85 K, 7760 kPa, x1 = 0.033	904
294.85 K, 8900 kPa, x1 = 0.017	777
294.85 K, 13000 kPa, x1 = 0.017	821
294.85 K, 13690 kPa, x1 = 0.033	969
294.95 K, 2450 kPa, x1 = 0.857	935
294.95 K, 3790 kPa, x1 = 0.857	942
294.95 K, 6860 kPa, x1 = 0.857	947
294.95 K, 11520 kPa, x1 = 0.857	950
295.05 K, 3900 kPa, x1 = 0.624	948
295.05 K, 7000 kPa, x1 = 0.624	952
295.05 K, 9660 kPa, x1 = 0.624	956
295.05 K, 14760 kPa, x1 = 0.624	965
295.35 K, 5310 kPa, x1 = 0.156	908
295.35 K, 7620 kPa, x1 = 0.156	910
295.35 K, 9620 kPa, x1 = 0.156	911
295.45 K, 5450 kPa, x1 = 0.264	901
295.45 K, 7900 kPa, x1 = 0.264	911
295.45 K, 12450 kPa, x1 = 0.264	926
295.45 K, 16590 kPa, x1 = 0.264	934
295.55 K, 6790 kPa, x1 = 0.122	998
295.55 K, 8790 kPa, x1 = 0.122	1010
295.55 K, 10590 kPa, x1 = 0.122	1019
295.55 K, 14410 kPa, x1 = 0.122	1036
295.85 K, 7140 kPa, x1 = 0.081	779
295.85 K, 9760 kPa, x1 = 0.081	781
295.85 K, 13170 kPa, x1 = 0.081	781
296.15 K, 7590 kPa, x1 = 0.339	964
296.15 K, 10550 kPa, x1 = 0.339	969
296.15 K, 16100 kPa, x1 = 0.339	976
296.35 K, 6310 kPa, x1 = 0.023	607
296.35 K, 6660 kPa, x1 = 0.023	614
296.35 K, 8930 kPa, x1 = 0.023	642
297.25 K, 5790 kPa, x1 = 0.062	854
297.25 K, 7550 kPa, x1 = 0.062	873
297.25 K, 9550 kPa, x1 = 0.062	894
297.25 K, 12830 kPa, x1 = 0.062	914
298.85 K, 6860 kPa, x1 = 0.039	804
298.85 K, 8520 kPa, x1 = 0.039	831
298.85 K, 11690 kPa, x1 = 0.039	873
301.55 K, 7930 kPa, x1 = 0.023	578
301.55 K, 10070 kPa, x1 = 0.023	604
301.55 K, 11520 kPa, x1 = 0.023	620
304.15 K, 6790 kPa, x1 = 0.156	795
304.15 K, 8030 kPa, x1 = 0.156	905
304.15 K, 10210 kPa, x1 = 0.156	906
304.15 K, 12210 kPa, x1 = 0.156	911
304.45 K, 7140 kPa, x1 = 0.091	913
304.45 K, 7830 kPa, x1 = 0.122	970
304.45 K, 8660 kPa, x1 = 0.091	927
304.45 K, 10170 kPa, x1 = 0.091	940
304.45 K, 10660 kPa, x1 = 0.122	989
304.45 K, 13690 kPa, x1 = 0.122	1006
304.55 K, 5690 kPa, x1 = 0.264	882
304.55 K, 6660 kPa, x1 = 0.264	885
304.55 K, 10380 kPa, x1 = 0.264	896
304.55 K, 13620 kPa, x1 = 0.264	907
305.05 K, 3620 kPa, x1 = 0.624	922
305.05 K, 5000 kPa, x1 = 0.624	926
305.05 K, 7480 kPa, x1 = 0.624	931
305.05 K, 10860 kPa, x1 = 0.624	937
305.05 K, 15480 kPa, x1 = 0.624	942
307.45 K, 8340 kPa, x1 = 0.339	950
307.45 K, 11280 kPa, x1 = 0.339	957
307.45 K, 16170 kPa, x1 = 0.339	965
307.55 K, 2720 kPa, x1 = 0.857	922
307.55 K, 4900 kPa, x1 = 0.857	926
307.55 K, 6860 kPa, x1 = 0.857	928
307.55 K, 11550 kPa, x1 = 0.857	934
309.15 K, 8070 kPa, x1 = 0.122	948
309.15 K, 11140 kPa, x1 = 0.122	972
309.15 K, 14720 kPa, x1 = 0.122	992
309.95 K, 8520 kPa, x1 = 0.017	652
309.95 K, 10170 kPa, x1 = 0.017	701
309.95 K, 11590 kPa, x1 = 0.017	724
311.75 K, 8520 kPa, x1 = 0.033	764
311.75 K, 10790 kPa, x1 = 0.033	831
311.75 K, 13310 kPa, x1 = 0.033	871
311.75 K, 15760 kPa, x1 = 0.033	905
315.25 K, 9690 kPa, x1 = 0.039	722
315.25 K, 10690 kPa, x1 = 0.039	749
315.25 K, 12660 kPa, x1 = 0.039	777
315.25 K, 14660 kPa, x1 = 0.039	812
315.45 K, 8620 kPa, x1 = 0.062	781
315.45 K, 11210 kPa, x1 = 0.062	824
315.45 K, 13170 kPa, x1 = 0.062	846
315.45 K, 16310 kPa, x1 = 0.062	879
316.45 K, 6030 kPa, x1 = 0.624	912
316.45 K, 10030 kPa, x1 = 0.624	917
316.45 K, 13210 kPa, x1 = 0.624	920
316.45 K, 17280 kPa, x1 = 0.624	926
317.55 K, 11280 kPa, x1 = 0.091	882
317.55 K, 14550 kPa, x1 = 0.091	913
317.55 K, 16520 kPa, x1 = 0.091	930
317.85 K, 8520 kPa, x1 = 0.156	887
317.85 K, 11140 kPa, x1 = 0.156	898
317.85 K, 12310 kPa, x1 = 0.156	899
317.95 K, 7340 kPa, x1 = 0.264	858
317.95 K, 9000 kPa, x1 = 0.264	863
317.95 K, 11830 kPa, x1 = 0.264	872
317.95 K, 15410 kPa, x1 = 0.264	882
320.75 K, 10340 kPa, x1 = 0.122	910
320.75 K, 11760 kPa, x1 = 0.122	924
320.75 K, 14380 kPa, x1 = 0.122	944
322.95 K, 4760 kPa, x1 = 0.857	905
322.95 K, 8520 kPa, x1 = 0.857	909
322.95 K, 12620 kPa, x1 = 0.857	914
322.95 K, 17030 kPa, x1 = 0.857	918
325.15 K, 7000 kPa, x1 = 0.339	932
325.15 K, 10590 kPa, x1 = 0.339	941
325.15 K, 15280 kPa, x1 = 0.339	952
326.65 K, 11620 kPa, x1 = 0.039	667
326.65 K, 12280 kPa, x1 = 0.039	690
326.65 K, 13620 kPa, x1 = 0.039	725
327.35 K, 10790 kPa, x1 = 0.091	808
327.35 K, 11520 kPa, x1 = 0.091	822
327.35 K, 13340 kPa, x1 = 0.091	848
327.35 K, 15830 kPa, x1 = 0.091	875
328.75 K, 9900 kPa, x1 = 0.156	872
328.75 K, 11000 kPa, x1 = 0.156	878
328.75 K, 13900 kPa, x1 = 0.156	890
329.15 K, 10450 kPa, x1 = 0.017	407
329.15 K, 11930 kPa, x1 = 0.017	574

Liquid, linear displacement
Settings	mass density [kg/m3]
294.85 K, x1 = 0.017	721
294.85 K, x1 = 0.033	864
294.95 K, x1 = 0.857	930
295.05 K, x1 = 0.624	944
295.35 K, x1 = 0.156	906
295.45 K, x1 = 0.264	883
295.55 K, x1 = 0.122	947
295.85 K, x1 = 0.081	779
296.15 K, x1 = 0.339	928
296.35 K, x1 = 0.023	599
297.25 K, x1 = 0.062	845
298.85 K, x1 = 0.039	787
301.55 K, x1 = 0.023	549
304.15 K, x1 = 0.156	901
304.45 K, x1 = 0.091	901
304.45 K, x1 = 0.122	954
304.55 K, x1 = 0.264	881
305.05 K, x1 = 0.624	919
307.45 K, x1 = 0.339	937
307.55 K, x1 = 0.857	916
309.15 K, x1 = 0.122	934
309.95 K, x1 = 0.017	621
311.75 K, x1 = 0.033	747
315.25 K, x1 = 0.039	682
315.45 K, x1 = 0.062	766
316.45 K, x1 = 0.624	907
317.55 K, x1 = 0.091	841
317.85 K, x1 = 0.156	885
317.95 K, x1 = 0.264	856
320.75 K, x1 = 0.122	890
322.95 K, x1 = 0.857	900
325.15 K, x1 = 0.339	929
326.65 K, x1 = 0.039	595
327.35 K, x1 = 0.091	794
328.75 K, x1 = 0.156	868
